# According to the supplement of paper PMC11061612:
# Assays:
# [1] = compound: CC1=CN2[C@@H](C1)C=NC3=CC(=C(C=C3C2=O)OC)OCCCCCOC4=C(C=C5C(=C4)N=C[C@@H]6CC(=CN6C5=O)C)OC [SG3199]; conditions: max 0.001 µM
# Method in brief: (§1)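 Cancer cell lines in 1536-well plates (7.5 μl DMEM/F12 or RPMI, 10% FBS) were held 24 hours at 37°C and 5% CO2 and then dosed for 72 hours at a final DMSO of typically 0.2%. Viability was taken from CellTiter-Glo 2.0 luminescence, scaled between blank-well and DMSO-well means. Curves were fitted as two-parameter logistic models with a non-linear mixed effects model, from which the single-agent IC50 was taken.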
# [2] = compound: CC(C)n1c(=O)n(C)c2cnc3cc(F)c(-c4ccc(OCCCN5CCCCC5)nc4)cc3c21 [AZD1390]; conditions: max 0.3 µM
# Method in brief: as §1
# [3] = compound: COc1cccc2c1C(=O)c1c(O)c3c(c(O)c1C2=O)C[C@@](O)(C(=O)CO)C[C@@H]3O[C@H]1C[C@H](N)[C@H](O)[C@H](C)O1 [Doxorubicin]; conditions: max 1 µM
# Method in brief: as §1
# [4] = compound: Cc1cc2ncnn2cc1Nc1ncc2c(n1)n(C1CCOCC1)c(=O)n2C [AZD7648]; conditions: max 10 µM
# Method in brief: as §1
# [5] = compound: CC1=C(C(=CC=C1)Cl)NC(=O)C2=CN=C(S2)NC3=CC(=NC(=N3)C)N4CCN(CC4)CCO [Dasatinib]; conditions: max 2 µM
# Method in brief: as §1
# [6] = compound: O=C(c1cc(Cc2n[nH]c(=O)c3ccccc23)ccc1F)N1CCN(C(=O)C2CC2)CC1 [Olaparib]; conditions: max 10 µM
# Method in brief: as §1
# [7] = compound: Cc1c2c(nn1C)CSCc1cc(n(C)n1)CSc1cc(c3ccccc3c1)OCCCc1c(C(=O)O)n(C)c3c-2c(Cl)ccc13 [AZD5991]; conditions: max 1 µM
# Method in brief: as §1
# [8] = compound: CN(C)CCCOc1ccc(-c2ccc3ncc4c(c3c2)n(C2CCOCC2)c(=O)n4C)cn1 [AZD0156]; conditions: max 3 µM
# Method in brief: as §1
# [9] = compound: C=CCn1c(=O)c2cnc(Nc3ccc(N4CCN(C)CC4)cc3)nc2n1-c1cccc(C(C)(C)O)n1 [AZD1775]; conditions: max 3 µM
# Method in brief: as §1
# [10] = compound: COc1cc(Nc2ncc3c(n2)-c2ccc(Cl)cc2C(c2c(F)cccc2OC)=NC3)ccc1C(=O)O [Alisertib]; conditions: max 10 µM
# Method in brief: as §1
# [11] = compound: COc1cc2ncnc(Nc3ccc(F)c(Cl)c3)c2cc1OCCCN1CCOCC1 [Gefitinib]; conditions: max 10 µM
# Method in brief: as §1
# [12] = compound: C[C@@H](Oc1cc(-c2cnn(C3CCNCC3)c2)cnc1N)c1c(Cl)ccc(F)c1Cl [Crizotinib]; conditions: max 10 µM
# Method in brief: as §1
# [13] = compound: CCc1c2c(nc3ccc(O)cc13)-c1cc3c(c(=O)n1C2)COC(=O)[C@]3(O)CC [SN-38]; conditions: max 0.3 µM
# Method in brief: as §1
# [14] = compound: C[C@@H]1COCCN1C2=NC(=NC(=C2)C3(CC3)[S@](=N)(=O)C)C4=C5C=CNC5=NC=C4 [AZD6738]; conditions: max 10 µM
# Method in brief: as §1
# [15] = compound: CS(=O)(=O)CCNCc1ccc(-c2ccc3ncnc(Nc4ccc(OCc5cccc(F)c5)c(Cl)c4)c3c2)o1 [Lapatinib]; conditions: max 10 µM
# Method in brief: as §1
# [16] = compound: Cn1cnc2c(F)c(Nc3ccc(Br)cc3Cl)c(C(=O)NOCCO)cc21 [Selumetinib]; conditions: max 10 µM
# Method in brief: as §1
# [17] = compound: COc1cccc(OCCCN)c1-c1cc(Nc2cnc(C#N)cn2)n[nH]1 [Prexasertib]; conditions: max 1 µM
# Method in brief: as §1
# [18] = compound: CN(CC[C@H](CSC1=CC=CC=C1)NC2=C(C=C(C=C2)S(=O)(=O)NC(=O)C3=CC=C(C=C3)N4CCC(CC4)[C@H](C5=CC=CC=C5C6=CC=C(C=C6)Cl)O)S(=O)(=O)C(F)(F)F)CCO [AZD4320]; conditions: max 1 µM
# Method in brief: as §1
# [19] = compound: C[C@@H](c1ccc2nccn2c1)n1nnc2ncc(-c3cnn(C)c3)nc21 [Savolitinib]; conditions: max 1 µM
# Method in brief: as §1
# [20] = compound: CCN(CCO)CCCOc1ccc2c(Nc3cc(CC(=O)Nc4cccc(F)c4)[nH]n3)ncnc2c1 [AZD2811]; conditions: max 1 µM
# Method in brief: as §1
# [21] = compound: C1CN(CCC1(C(=O)N[C@@H](CCO)C2=CC=C(C=C2)Cl)N)C3=NC=NC4=C3C=CN4 [Capivasertib]; conditions: max 10 µM
# Method in brief: as §1
# [22] = compound: CC1(C)CCC(CN2CCN(c3ccc(C(=O)NS(=O)(=O)c4ccc(NCC5CCOCC5)c([N+](=O)[O-])c4)c(Oc4cnc5[nH]ccc5c4)c3)CC2)=C(c2ccc(Cl)cc2)C1 [Venetoclax]; conditions: max 1 µM
# Method in brief: as §1
# [23] = compound: CC(=O)c1c(C)c2cnc(Nc3ccc(N4CCNCC4)cn3)nc2n(C2CCCC2)c1=O [Palbociclib]; conditions: max 10 µM
# Method in brief: as §1
# [24] = compound: Cc1nc(-c2cn3c(n2)-c2ccc(-c4cnn(C(C)(C)C(N)=O)c4)cc2OCC3)n(C(C)C)n1 [Taselisib]; conditions: max 10 µM
# Method in brief: as §1
# [25] = compound: CC(=O)Nc1cccc(-n2c(=O)n(C3CC3)c(=O)c3c(Nc4ccc(I)cc4F)n(C)c(=O)c(C)c32)c1 [Trametinib]; conditions: max 1 µM
# Method in brief: as §1
# [26] = compound: COc1nnc2ccc(N3CCC(c4ccc(OCCN5CCN(C)C(=O)[C@H]5C)cc4)CC3)nn12 [AZD5153]; conditions: max 1 µM
# Method in brief: as §1
# [27] = compound: C[C@@H](Nc1cc(F)cc(F)c1)c1cc(C(=O)N(C)C)cc2c(=O)cc(N3CCOCC3)oc12 [AZD8186]; conditions: max 3 µM
# Method in brief: as §1
Cell Line,"IC50, cell viability 72 h [1]","IC50, cell viability 72 h [2]","IC50, cell viability 72 h [3]","IC50, cell viability 72 h [4]","IC50, cell viability 72 h [5]","IC50, cell viability 72 h [6]","IC50, cell viability 72 h [7]","IC50, cell viability 72 h [8]","IC50, cell viability 72 h [9]","IC50, cell viability 72 h [10]","IC50, cell viability 72 h [11]","IC50, cell viability 72 h [12]","IC50, cell viability 72 h [13]","IC50, cell viability 72 h [14]","IC50, cell viability 72 h [15]","IC50, cell viability 72 h [16]","IC50, cell viability 72 h [17]","IC50, cell viability 72 h [18]","IC50, cell viability 72 h [19]","IC50, cell viability 72 h [20]","IC50, cell viability 72 h [21]","IC50, cell viability 72 h [22]","IC50, cell viability 72 h [23]","IC50, cell viability 72 h [24]","IC50, cell viability 72 h [25]","IC50, cell viability 72 h [26]","IC50, cell viability 72 h [27]"
NCI-H1623 (Lung Adenocarcinoma),> 1 nM,> 300 nM,> 1000 nM,> 10000 nM,> 2000 nM,> 10000 nM,163 nM,> 3000 nM,> 3000 nM,> 10000 nM,714 nM,> 10000 nM,7.47 nM,8050 nM,902 nM,> 10000 nM,89.5 nM,> 1000 nM,> 1000 nM,> 1000 nM,> 10000 nM,> 1000 nM,> 10000 nM,340 nM,229 nM,> 1000 nM,> 3000 nM
OCI-AML5 (Acute Myeloid Leukemia),> 1 nM,> 300 nM,658 nM,> 10000 nM,> 2000 nM,> 10000 nM,58.8 nM,> 3000 nM,543 nM,1130 nM,> 10000 nM,2410 nM,9.54 nM,2240 nM,> 10000 nM,2120 nM,13.4 nM,42.7 nM,> 1000 nM,18.6 nM,> 10000 nM,50.6 nM,6640 nM,2190 nM,28.9 nM,323 nM,> 3000 nM
OVTOKO (Ovarian Carcinoma),> 1 nM,> 300 nM,> 1000 nM,> 10000 nM,56.4 nM,> 10000 nM,> 1000 nM,> 3000 nM,2100 nM,> 10000 nM,> 10000 nM,> 10000 nM,> 300 nM,> 10000 nM,> 10000 nM,> 10000 nM,714 nM,> 1000 nM,> 1000 nM,> 1000 nM,8520 nM,> 1000 nM,> 10000 nM,693 nM,> 1000 nM,948 nM,2650 nM
RERF-LC-KJ (Lung Adenocarcinoma),> 1 nM,> 300 nM,> 1000 nM,> 10000 nM,> 2000 nM,> 10000 nM,> 1000 nM,> 3000 nM,> 3000 nM,> 10000 nM,> 10000 nM,> 10000 nM,240 nM,> 10000 nM,> 10000 nM,> 10000 nM,> 1000 nM,> 1000 nM,> 1000 nM,> 1000 nM,> 10000 nM,> 1000 nM,> 10000 nM,6500 nM,> 1000 nM,83.7 nM,> 3000 nM
